This experiment concerns the target human PD-L1 (Homo sapiens (Human), UniProt Q9NZQ7). In words: T cell activation luciferase reporter cell culture system (T Cell Activation Assay). The experiment is classed as cell-based. The note with it: luciferase reporter assay; PD-L1 aAPC/CHO-K1 cells with PD-1 effector Jurkat T cells.
Chain of human PD-L1 (Q9NZQ7 19-290): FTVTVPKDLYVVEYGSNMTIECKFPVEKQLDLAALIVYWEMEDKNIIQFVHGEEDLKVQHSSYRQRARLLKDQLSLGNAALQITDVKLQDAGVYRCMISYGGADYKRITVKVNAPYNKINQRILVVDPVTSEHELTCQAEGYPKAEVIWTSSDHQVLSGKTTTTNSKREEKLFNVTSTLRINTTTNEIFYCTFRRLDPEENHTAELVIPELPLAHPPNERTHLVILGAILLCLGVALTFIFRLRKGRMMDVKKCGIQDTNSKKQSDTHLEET
In turn, `COc1cc(-c2nccc(-c3cccc(-c4ccc(CNC[C@H](C)O)c(OC)n4)c3Cl)c2C)ccc1CNC[C@H](C)O` [Example 274, (S)-1-(((6-(2-Chloro-3-(2-(4-((((S)-2-hydroxypropyl)amino)methyl)-3-methoxyphenyl)-3-methylpyridin-4-yl)-phenyl)-2-methoxypyridin-3-yl)-methyl)-amino)propan-2-ol] returned an EC50 of 114 nM.

As to `COc1cc(-c2nccc(-c3cccc(-c4ccc(CN5CC6(CNC(=O)C6)C5)c(OC)n4)c3Cl)c2F)ccc1CN1CC2(CNC(=O)C2)C1` [Example 324, 2-(4-(4-(2-chloro-3-(6-methoxy-5-((7-oxo-2,6-diazaspiro[3.4]octan-2-yl)methyl)pyridin-2-yl)phenyl)-3-fluoropyridin-2-yl)-2-methoxybenzyl)-2,6-diazaspiro[3.4]octan-7-one], the midpoint of the response, the EC50, lay at 31.4 nM.

For the molecule `COc1cc(-c2nccc(-c3cccc(-c4ccc(CNCC5CCOCC5)c(OC)n4)c3Cl)c2Cl)ccc1CNCC1CCOCC1` [Example 330, 1-(6-(2-Chloro-3-(3-chloro-2-(3-methoxy-4-((((tetrahydro-2H-pyran-4-yl)methyl)amino)methyl)phenyl)pyridin-4-yl)phenyl)-2-methoxypyridin-3-yl)-N-((tetrahydro-2H-pyran-4-yl)methyl)methanamine], the EC50 was 73.8 nM.

`CNCc1ccc(-c2nccc(-c3cccc(-c4ccc(CNC)c(OC)n4)c3Cl)c2C)cc1OC` [Example 334, 1-(6-(2-Chloro-3-(2-(3-methoxy-4-((methylamino)methyl)phenyl)-3-methylpyridin-4-yl)phenyl)-2-methoxypyridin-3-yl)-N-methylmethanamine]: the midpoint of the response, the EC50, lay at 38.5 nM.

In turn, `COc1cc(-c2nccc(-c3cccc(-c4ccc(CNC[C@@H]5CCC(=O)N5)c(OC)n4)c3Cl)c2Cl)ccc1[C@H](C)N` [Example 335, (S)-5-((((6-(3-(2-(4-((S)-1-Aminoethyl)-3-methoxyphenyl)-3-chloropyridin-4-yl)-2-chlorophenyl)-2-methoxypyridin-3-yl)methyl)amino)methyl)pyrrolidin-2-one] came in with an EC50 of 49.8 nM.

Consider `COc1nc(-c2ccnc(-c3cccc4c3CC[C@@H]4Oc3nc(OC)c(CN4CC5(CNC(=O)C5)C4)cc3C(F)(F)F)c2Cl)ccc1CN1CC2(CNC(=O)C2)C1` [Example 336, (S)-2-((3′-Chloro-6-methoxy-2′-(1-((6-methoxy-5-((7-oxo-2,6-diazaspiro[3.4]octan-2-yl)methyl)-3-(trifluoromethyl)pyridin-2-yl)oxy)-2,3-dihydro-1H-inden-4-yl)-[2,4′-bipyridin]-5-yl)methyl)-2,6-diazaspiro[3.4]octan-7-one], for which a half-maximal response (EC50) required 95.6 nM.

Take `COc1cc(-c2nccc(-c3cccc(-c4ccc(CNC5CCN(C(=O)C6CC6)CC5)c(OC)n4)c3Cl)c2Cl)ccc1CNC1CCN(C(=O)C2CC2)CC1` [Example 345, (4-(((6-(2-Chloro-3-(3-chloro-2-(4-(((1-(cyclopropanecarbonyl)piperidin-4-yl)amino)methyl)-3-methoxyphenyl)pyridin-4-yl)phenyl)-2-methoxypyridin-3-yl)methyl)amino)piperidin-1-yl)(cyclopropyl)methanone]: the concentration giving a half-maximal response (EC50) is 32.3 nM.

`COc1cc(-c2nccc(-c3cccc(-c4ccc(CNC5CCN(C(=O)C(C)C)CC5)c(OC)n4)c3Cl)c2Cl)ccc1CNC1CCN(C(=O)C(C)C)CC1` [Example 346, 1-(4-(((6-(2-Chloro-3-(3-chloro-2-(4-(((1-isobutyrylpiperidin-4-yl)amino)methyl)-3-methoxyphenyl)pyridin-4-yl)phenyl)-2-methoxypyridin-3-yl)methyl)amino)piperidin-1-yl)-2-methylpropan-1-one] gave a concentration for a half-maximal effect (EC50) of 70.5 nM.

`COc1cc(-c2nccc(-c3cccc(-c4ccc(CNC5CCN(C(=O)C(C)C)CC5)c(OC)n4)c3Cl)c2Cl)cc(F)c1CNC1CCN(C(=O)C(C)C)CC1` [Example 347, 1-(4-(((6-(2-Chloro-3-(3-chloro-2-(3-fluoro-4-(((1-isobutyrylpiperidin-4-yl)amino)methyl)-5-methoxyphenyl)pyridin-4-yl)phenyl)-2-methoxypyridin-3-yl)methyl)amino)piperidin-1-yl)-2-methylpropan-1-one] yielded an EC50 of 69.6 nM.

`COc1cc(-c2nccc(-c3cccc(-c4ccc(CNC5CCOCC5)c(OC)n4)c3Cl)c2Cl)cc(F)c1CNC1CCOCC1` [Example 348, N-((6-(2-Chloro-3-(3-chloro-2-(3-fluoro-5-methoxy-4-(((tetrahydro-2H-pyran-4-yl)amino)methyl)phenyl)pyridin-4-yl)phenyl)-2-methoxypyridin-3-yl)methyl)tetrahydro-2H-pyran-4-amine] had an EC50 of 28.9 nM.

Molecule `COc1cc(-c2nccc(-c3cccc(-c4ccc(CNC5CCS(=O)(=O)CC5)c(OC)n4)c3Cl)c2Cl)cc(F)c1CNC1CCS(=O)(=O)CC1` [Example 349, 4-(((6-(2-Chloro-3-(3-chloro-2-(4-(((1,1-dioxidotetrahydro-2H-thiopyran-4-yl)amino)methyl)-3-fluoro-5-methoxyphenyl)pyridin-4-yl)phenyl)-2-methoxypyridin-3-yl)methyl)amino)tetrahydro-2H-thiopyran 1,1-dioxide] gave a half-maximal effective concentration (EC50) of 38.3 nM.

The molecule `COc1nc(-c2cccc(-c3ccnc(-c4cc(OC)c5nc(CN6CC(C(=O)O)C6)cn5c4)c3Cl)c2Cl)ccc1CNC[C@@H]1CCC(=O)N1` [Example 350, (S)-1-((6-(3-Chloro-4-(2-chloro-3-(6-methoxy-5-((((5-oxopyrrolidin-2-yl)methyl)amino)methyl)pyridin-2-yl)phenyl)pyridin-2-yl)-8-methoxyimidazo[1,2-a]pyridin-2-yl)methyl)azetidine-3-carboxylic acid] returned an EC50 of 89.2 nM.

`COc1nc(-c2cccc(-c3ccnc(-c4cc(OC)c5nc(CNCCC6(C(=O)O)CC6)cn5c4)c3Cl)c2Cl)ccc1CNC[C@@H]1CCC(=O)N1` [Example 351, (S)-1-(2-(((6-(3-Chloro-4-(2-chloro-3-(6-methoxy-5-((((5-oxopyrrolidin-2-yl)methyl)amino)methyl)pyridin-2-yl)phenyl)pyridin-2-yl)-8-methoxyimidazo[1,2-a]pyridin-2-yl)methyl)amino)ethyl)cyclopropane-1-carboxylic acid] yielded a 50% effective concentration (EC50) of 146 nM.

The molecule `COc1cc(-c2nccc(-c3cccc(-c4ccc(CNC5CCN(C(=O)C6CCC6)CC5)c(OC)n4)c3Cl)c2Cl)ccc1CNC1CCN(C(=O)C2CCC2)CC1` [Example 352, (4-(((6-(2-Chloro-3-(3-chloro-2-(4-(((1-(cyclobutanecarbonyl)piperidin-4-yl)amino)methyl)-3-methoxyphenyl)pyridin-4-yl)phenyl)-2-methoxypyridin-3-yl)methyl)amino)piperidin-1-yl)(cyclobutyl)methanone] showed a 50% effective concentration (EC50) of 134 nM.

On to `COc1cc(-c2nccc(-c3cccc(-c4ccc(CNC[C@H]5CCC(=O)N5)c(OC)n4)c3Cl)c2Cl)ccc1CNC[C@H]1CCC(=O)N1` [Example 354, (R)-5-((((6-(2-Chloro-3-(3-chloro-2-(3-methoxy-4-(((((R)-5-oxopyrrolidin-2-yl)methyl)amino)methyl)phenyl)pyridin-4-yl)phenyl)-2-methoxypyridin-3-yl)methyl)amino)methyl)pyrrolidin-2-one], for which the EC50 was 26.3 nM.

Molecule `COc1cc(-c2nccc(-c3cccc(-c4ccc(CN5CCC(NC(C)=O)CC5)c(OC)n4)c3Cl)c2Cl)ccc1CNC[C@H]1CCC(=O)N1` [Example 356, (R)—N-(1-((6-(2-Chloro-3-(3-chloro-2-(3-methoxy-4-((((5-oxopyrrolidin-2-yl)methyl)amino)methyl)phenyl)pyridin-4-yl)phenyl)-2-methoxypyridin-3-yl)methyl)piperidin-4-yl)acetamide] registered a 50% effective concentration (EC50) of 25.5 nM.

`COc1cc(-c2nccc(-c3cccc(-c4ccc(CN5CCC(NC(C)=O)CC5)c(OC)n4)c3Cl)c2Cl)ccc1CNC[C@@H]1CCC(=O)N1` [Example 357, (S)—N-(1-((6-(2-Chloro-3-(3-chloro-2-(3-methoxy-4-((((5-oxopyrrolidin-2-yl)methyl)amino)methyl)phenyl)pyridin-4-yl)phenyl)-2-methoxypyridin-3-yl)methyl)piperidin-4-yl)acetamide] came in with an EC50 of 9.1 nM.

The molecule `COc1cc(-c2nccc(-c3cccc(-c4ccc(CNC5CC(=O)NC(=O)C5)c(OC)n4)c3Cl)c2Cl)ccc1CNC1CC(=O)NC(=O)C1` [Example 359, 4-(((6-(2-Chloro-3-(3-chloro-2-(4-(((2,6-dioxopiperidin-4-yl)amino)methyl)-3-methoxyphenyl)pyridin-4-yl)phenyl)-2-methoxypyridin-3-yl)methyl)amino)piperidine-2,6-dione] had an EC50 of 40.4 nM.

In turn, `COc1cc(-c2nccc(-c3cccc(-c4ccc(CNC5CCN(C(C)=O)CC5)c(OC)n4)c3Cl)c2Cl)ccc1CN[C@H]1CC[C@H](O)CC1` [Example 360, 1-(4-(((6-(2-Chloro-3-(3-chloro-2-(4-((((1r,4r)-4-hydroxycyclohexyl)amino)methyl)-3-methoxyphenyl)pyridin-4-yl)phenyl)-2-methoxypyridin-3-yl)methyl)amino)piperidin-1-yl)ethan-1-one] had a 50% effective concentration (EC50) of 31 nM.

`COc1cc(-c2nccc(-c3cccc(-c4ccc(CNC5CCN(C(C)=O)CC5)c(OC)n4)c3Cl)c2Cl)ccc1CN1CC2(CC(O)C2)C1` [Example 361, 1-(4-(((6-(2-Chloro-3-(3-chloro-2-(4-((6-hydroxy-2-azaspiro[3.3]heptan-2-yl)methyl)-3-methoxyphenyl)pyridin-4-yl)phenyl)-2-methoxypyridin-3-yl)methyl)amino)piperidin-1-yl)ethan-1-one] returned an EC50 of 40.5 nM.

Molecule `CNCc1ccc(-c2nccc(-c3cccc(-c4ccc(CNC)c(OC)n4)c3C)c2C)cc1OC` [Example 362, 1-(2-Methoxy-4-(4-(3-(6-methoxy-5-((methylamino)methyl)pyridin-2-yl)-2-methylphenyl)-3-methylpyridin-2-yl)phenyl)-N-methylmethanamine] showed a concentration giving a half-maximal response (EC50) of 261 nM.

In the case of `COc1cc(-c2nccc(-c3cccc(-c4ccc(CNC5CCN(C(C)=O)CC5)c(OC)n4)c3C)c2C)ccc1CNC1CCN(C(C)=O)CC1` [Example 363, 1-(4-(((6-(3-(2-(4-(((1-Acetylpiperidin-4-yl)amino)methyl)-3-methoxyphenyl)-3-methylpyridin-4-yl)-2-methylphenyl)-2-methoxypyridin-3-yl)methyl)amino)piperidin-1-yl)ethan-1-one], the response was half-maximal at 400 nM (EC50).

As usually defined, the EC50 is the concentration giving half of the maximal effect.

(Values after US20240246964A1 (Arbutus Biopharma Corporation, priority 2021, published 2024).)
